Consider 16 molecules from US7576115B2, “Heterocyclic compounds and thrombopoietin receptor activators” (Nissan Chemical Industries, Ltd., priority 2003, dated 2009).

The EC50 is the concentration that produces a half-maximal response.

The first test concerns the target T1, thrombopoietin (TPO) receptor (Homo sapiens, UniProt P40238).
T1 construct: expressed in transfected cells; host or cells: human leukemic cell line UT7/EPO, stably transformed (UT7/EPO-mpl)
T1 sequence (P40238 26-635): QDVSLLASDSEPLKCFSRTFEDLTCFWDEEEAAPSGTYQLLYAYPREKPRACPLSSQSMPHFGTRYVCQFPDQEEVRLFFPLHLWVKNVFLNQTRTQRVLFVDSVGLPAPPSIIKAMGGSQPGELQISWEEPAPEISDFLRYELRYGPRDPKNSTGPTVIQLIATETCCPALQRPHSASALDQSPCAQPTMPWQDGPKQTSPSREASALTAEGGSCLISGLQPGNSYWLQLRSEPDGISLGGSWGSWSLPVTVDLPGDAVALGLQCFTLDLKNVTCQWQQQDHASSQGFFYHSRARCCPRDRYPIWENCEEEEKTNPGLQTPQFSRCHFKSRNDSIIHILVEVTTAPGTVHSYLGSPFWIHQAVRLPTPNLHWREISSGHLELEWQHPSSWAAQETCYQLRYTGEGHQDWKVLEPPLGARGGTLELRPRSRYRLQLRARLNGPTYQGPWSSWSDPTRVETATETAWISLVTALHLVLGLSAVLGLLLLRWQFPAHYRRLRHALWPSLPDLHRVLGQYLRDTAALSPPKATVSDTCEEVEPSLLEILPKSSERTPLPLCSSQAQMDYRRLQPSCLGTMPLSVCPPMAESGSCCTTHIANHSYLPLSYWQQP
Put plainly: Stimulation of proliferation of TPO-dependent cell line UT7/EPO-mpl (WST-8). Particulars: FIG. 1; concentration-dependent; 4 days incubation, WST-8 absorbance at 450 nm. Type of test: cell-based. As for the experimental part:
The reactivity of the compound of Synthetic Example 3 of the present invention with thrombopoietin (TPO) receptor was assayed using a human leukemic cell line, UT7/EPO-mpl.
(§1) UT7/EPO-mpl is a stable transformed cell line obtained by introducing into human leukemic cell line UT7/EPO a vector that induces expression of human TPO receptor (c-mp1) under control of a cytomegaloviral promoter by the method of Takatoku et al. (J. Biol. Chem., 272:7259-7263 (1997)). […] These two cell lines were subcultured in Iscove's modified Dulbecco's medium (IMDM; GIBCO) containing 10% fetal bovine serum (FBS; TRACE SCIENTIFIC, Thermo Electron or BioWest) using a CO2 incubator (5% CO2, 37° C.)
(§2) The subcultured cells described above were washed twice with phosphate buffered saline (PBS) and suspended in IMDM containing 10% FBS at a cell density of 6×10^4 cells/ml. The cell suspension was transferred to a 96-well tissue culture plate (CORNING) in 100 μl aliquots. Then either TPO (PeproTech EC) or the compound of Synthetic Example 3 dissolved in dimethyl sulfoxide (DMSO) was diluted 83-fold with IMDM containing 10% FBS and added to the aforementioned cell suspension in 20 μl aliquots. The suspension was incubated in a CO2 incubator (5% Co2, 37° C.) for 4 days. Cell proliferation was assayed using WST-8 reagent (Kishida Chemical Co., Ltd.) according to instructions by the manufacturer. A 10 μl aliquot of 5 mM WST-8 reagent solution was added to each well of the tissue culture plate, and the plate was incubated at 37° C. for 4 h. The formazan pigment generated was detected by measuring the absorbance at 450 nm with a 96-well microplate reader (Nihon Molecular Devices, Spectramax 190).
The compounds of the following Synthetic Examples were tested according to the method of Assay Example 1 to determine the concentration of each compound that yields a growth rate corresponding to 50% of the growth of human leukemic cell line UT-7/EPO-mpl observed in the presence of 10 ng/ml TPO (EC50).
For orientation: Tetrazolium dyes change colour on reduction, which living cells bring about.
In the case of `CC(=NNC(=O)c1ccc(C(=O)O)cc1)c1nn(C)c(-c2ccc(C(C)(C)C)cc2)c1O` [Synthetic Example 3, 4-[(2-{1-[5-(4-tert-butylphenyl)-4-hydroxy-1-methyl-1H-pyrazol-3-yl]ethylidene}hydrazino)carbonyl]benzoic acid], the “proliferation of TPO-responsive UT7/EPO-mpl cells” value is on record as “stimulated”.

The same test, now with this note: concentration that yields a growth rate corresponding to 50% of the growth of UT-7/EPO-mpl observed in the presence of 10 ng/ml TPO.
In the case of `C/C(=N\NC(=S)Nc1cccc(C(=O)O)c1)c1csc(-c2ccc(C)c(C)c2)c1O` [compound 136], the half-maximal effective concentration (EC50) was 7.05 nM. Turning to `C/C(=N\NC(=S)Nc1ccc2[nH]c(=O)[nH]c2c1)c1csc(-c2ccc(Cl)c(Cl)c2)c1O` [compound 154], the EC50 is 5.69 nM.

Regarding `C/C(=N\NC(=S)Nc1ccc2cn[nH]c2c1)c1nn(C)c(-c2ccc(Cl)c(Cl)c2)c1O` [compound 155], the EC50 was 11.2 nM. On the same count and under the same terms, with `CC(=O)Nc1cccc(NC(=S)N/N=C(\C)c2nn(C)c(-c3ccc(C(F)(F)F)cc3)c2O)c1` [compound 157] the figure was 6.32 nM; with `C/C(=N\NC(=S)Nc1ccccc1CC(N)=O)c1nn(C)c(-c2ccc(C(F)(F)F)cc2)c1O` [compound 161], 7.95 nM; with `C/C(=N\NC(=S)Nc1cc(C(=O)O)cc([N+](=O)[O-])c1)c1nn(C)c(-c2ccc(Cl)c(Cl)c2)c1O` [compound 164], 5.73 nM. On the same count and under the same terms, then `C/C(=N\NC(=O)c1ccc2cc(C(=O)O)ccc2c1)c1csc(-c2ccc(Cl)c(Cl)c2)c1O` [compound 169], with 7.41 nM; and `C/C(=N\NC(=O)c1ccc(N)c(N)c1)c1csc(-c2ccc(Cl)c(Cl)c2)c1O` [compound 176], with 36.8 nM. On to `C/C(=N\NC(=O)c1ccc(C(=O)NC2CCCC2)s1)c1csc(-c2ccc(Cl)c(Cl)c2)c1O` [compound 178], for which the EC50 is 6.51 nM. As for `C/C(=N\NC(=O)c1ccc(C(N)=O)s1)c1csc(-c2ccc(Cl)c(Cl)c2)c1O` [compound 179], the EC50 is 6.6 nM. On the same count and under the same terms, with `C/C(=N\NC(=O)c1sc(N)nc1C(F)(F)F)c1csc(-c2ccc(Cl)c(Cl)c2)c1O` [compound 181] the figure was 5.65 nM; with `C/C(=N\NC(=O)c1ccc(C(=O)O)c([N+](=O)[O-])c1)c1csc(-c2ccc(C)c(C)c2)c1O` [compound 212], 0.529 nM. The same measure, in the same setting: then `C/C(=N\NC(=O)c1ccc(C(=O)NCCCN(C)C)s1)c1csc(-c2ccc(Cl)c(Cl)c2)c1O` [compound 226], with 4.08 nM. Still for that read-out and setting: with `C/C(=N\NC(=O)c1ccc(C(=O)O)cc1N)c1nn(C)c(-c2ccc(C(F)(F)F)cc2)c1O` [compound 228] the figure was 1.56 nM.

Another test concerns UT7/EPO cells. As to the kind of experiment: Proliferation of mother cell line UT7/EPO expressing no TPO receptor (WST-8). It counts as cell-based, human. Particulars: FIG. 2. As for the experimental part: as §1
as §2, with “A 10 μl aliquot of 5 mM WST-8 reagent solution was added to each well of the tissue culture plate, and the plate was incubated at 37° C. for 4 h.” left out
On to `CC(=NNC(=O)c1ccc(C(=O)O)cc1)c1nn(C)c(-c2ccc(C(C)(C)C)cc2)c1O` [Synthetic Example 3, 4-[(2-{1-[5-(4-tert-butylphenyl)-4-hydroxy-1-methyl-1H-pyrazol-3-yl]ethylidene}hydrazino)carbonyl]benzoic acid], for which the “effect on proliferation of UT7/EPO, the mother cell line” value is “no effect”.

The next test has as its system Human bone marrow CD34+ cells. As to the kind of experiment: Megakaryocyte colony stimulating activity (megakaryocyte colony forming method). It counts as cell-based. Particulars: Concentration 0.3 μg/ml; 11 days; colonies of at least 8 stained megakaryocyte cells. As for the experimental part: The action of the compound of Synthetic Example 2 of the present invention on the proliferation, differentiation and maturation of megakaryocyte cells was measured by the megakaryocyte colony forming method using human bone marrow cells. Human bone marrow CD34^+ cells (Cambrex Bio Science Walkersville) were incubated on 2-well chamber slide for 11 days in a CO2 incubator (5% CO2, 37° C.) using MegaCult™-C (StemCell Technologies) containing 0.1% (v/v) of the compound of Synthetic Example 2 dissolved in DMSO. After dehydration and fixation, the cells were stained with an anti-glycoprotein IIb/IIIa antibody in accordance with the instruction by the manufacturer. The colonies consisting of at least 8 stained megakaryocyte cells in each well was counted under a microscope. The megakaryocyte colony counts of duplicate or more assays were averaged.
In the case of `CC(=NNC(=S)Nc1ccc(C(=O)O)cc1)c1nn(C)c(-c2ccc(Cl)c(Cl)c2)c1O` [Synthetic Example 2, 4-{[(2-{1-[5-(3,4-dichlorophenyl)-4-hydroxy-1-methyl-1H-pyrazol-3-yl]ethylidene}hydrazino)carbonothioyl]amino}benzoic acid], the “Megakaryocyte colony Count” value amounted to 25.

The same test, now with this note: Concentration 1 μg/ml; 11 days; colonies of at least 8 stained megakaryocyte cells.
As to `CC(=NNC(=S)Nc1ccc(C(=O)O)cc1)c1nn(C)c(-c2ccc(Cl)c(Cl)c2)c1O` [Synthetic Example 2, 4-{[(2-{1-[5-(3,4-dichlorophenyl)-4-hydroxy-1-methyl-1H-pyrazol-3-yl]ethylidene}hydrazino)carbonothioyl]amino}benzoic acid], the “Megakaryocyte colony Count” value was 48.
